System: Blast cells from B-ALL patients
Assay: MTT growth inhibition on primary cultures, 24 h
Type: cell-based, human
Conditions: B-acute lymphoblastic leukemia patients primary cultures
Experimental: CP growth inhibitory activity was measured on primary cultures derived from pediatric patients affected by B-acute lymphoblastic leukemia. […] In particular, in resting and in PHA-stimulated PBMC, and in CD19^+ cells GI50 was higher than 10 μM confirming that CP preferentially affects leukemia cells.
FIGURE 6 CP effects on B-ALL primary cultures (A) Blast cells from six B-ALL patients were incubated for 24 h with different concentrations of CP. For the sake of comparison CD19^+ cells from peripheral blood of healthy donors, and PBMC were also incubated with CP in the presence or absence of PHA. Cell viability were assayed by MTT analysis. Data are represented as mean ± S.E.M of four independent experiments. […] Cell viability was evaluated on the whole population by flow cytometry after staining the cells with Annexin-V-FITC and PI. are represented as mean ± S.E.M of 3 independent experiments. […]
The human leukemia cell lines RS 4;11, SEM, REH, RCH-ACV, MHH-CALL2, Jurkat, CCRF-CEM, HSB2, HL-60, K562, THP-1, MV4;11 were purchased from the American Type Culture Collection. […] The cytotoxic activity of CP was determined using a standard 3-[4,5-dimethylthiazol-2-yl]-2,5-diphenyltetrazodium bromide (MTT) based colorimetric assay (Sigma-Aldrich, Italy). […] After different times, cell survival was determined by the addition of an MTT solution as previously described. […]

In the case of `F[P-](F)(F)(F)(F)F.OCP(CO)CO.OCP(CO)CO.OCP(CO)CO.OCP(CO)CO.[Cu+]` [CP, [Cu(thp)4][PF6]], the GI50 is reported as 2.3 µM.
